Measurements taken from patent publication US9266842B2, “Anti-malarial agents” (UNIVERSITY OF CAPE TOWN, priority 2012, dated 2016).
Converted amounts (≈) assume the structure as drawn.

Legend:
[1] = test system: P. falciparum K1; test: Anti-malarial in vitro efficacy, assay 1, P. falciparum K1; type: cell-based; settings: Plasmodium falciparum, strain K1
Procedure: (§1) The ability of aminopyrazine derivatives according to the invention to kill P. falciparum parasites and/or to inhibit its proliferation is tested as follows:
(§2) The protocol used was as described in the supplemental material to Fiddock et al., 2004, Nature Reviews Drug Discovery, (3), p 509.
(§3) EC50s (ng/ml) are reported in Table 3 below against different strains of P. falciparum K1, NF54 (assay 1).

[2] = test system: parasitemia; test: Anti-malarial in vivo efficacy, inhibition of parasitemia after 4 daily oral doses; settings: for inhibition in vivo at 3 mg/kg: read-out: percentages of inhibition of parasitemia, 3 mg/kg po; for inhibition in vivo at 10 mg/kg: read-out: percentages of inhibition of parasitemia, 10 mg/kg po
Description: The ability of aminopyrazine derivatives according to the invention to show antimalarial efficacy in vivo can be tested by using the protocols described in the supplemental material to Fidock et al., 2004, Nature Reviews Drug Discovery, (3), p 509.

[3] = test system: P. falciparum NF54; test: Anti-malarial in vitro efficacy, assay 1, P. falciparum NF54; type: cell-based; settings: Plasmodium falciparum, strain NF54
Procedure: as §1, §2, §3

COc1ccc(-c2nc(-c3ccc(S(C)(=O)=O)cc3)cnc2N)cn1 [Compound 1, 3-(6-methoxypyridin-3-yl)-5-(4-(methylsulfonyl)phenyl)pyrazin-2-amine]
EC50 [1]: 17 ng/mL (≈ 47.7 nM)

CS(=O)(=O)c1ccc(-c2cnc(N)c(-c3ccc(C(F)(F)F)cc3)n2)cc1 [Compound 2, 5-(4-(methylsulfonyl)phenyl)-3-(4-(trifluoromethyl)phenyl)pyrazin-2-amine]
EC50 [1]: 4 ng/mL (≈ 10.2 nM)

CS(=O)(=O)c1ccc(-c2cnc(N)c(-c3ccc(C(F)(F)F)nc3)n2)cc1 [Compound 3, 5-(4-(methylsulfonyl)phenyl)-3-(6-(trifluoromethyl)pyridin-3-yl)pyrazin-2-amine]
EC50 [1]: 4.8 ng/mL (≈ 12.2 nM)

NC(=O)c1ccc(-c2cnc(N)c(-c3ccc(C(F)(F)F)cc3)n2)cc1 [Compound 4, 4-(5-amino-6-(4-(trifluoromethyl)phenyl)pyrazin-2-yl)benzamide]
inhibition in vivo at 3 mg/kg [2]: 99.9% | inhibition in vivo at 10 mg/kg [2]: 99.9% | EC50 [3]: 5.7 ng/mL (≈ 15.9 nM) | EC50 [1]: 4.9 ng/mL (≈ 13.7 nM)

NC(=O)c1ccc(-c2cnc(N)c(-c3ccc(C(F)(F)F)nc3)n2)cc1 [Compound 5, 4-(5-amino-6-(6-(trifluoromethyl)pyridin-3-yl)pyrazin-2-yl)benzamide]
inhibition in vivo at 3 mg/kg [2]: 99.4% | inhibition in vivo at 10 mg/kg [2]: 99.9% | EC50 [3]: 7.8 ng/mL (≈ 21.7 nM) | EC50 [1]: 5.8 ng/mL (≈ 16.1 nM)

CN1CCN(C(=O)c2ccc(-c3cnc(N)c(-c4ccc(C(F)(F)F)cc4)n3)cc2)CC1 [Compound 6, (4-(5-amino-6-(4-(trifluoromethyl)phenyl)pyrazin-2-yl)phenyl)(4-methylpiperazin-1-yl) methanone]
inhibition in vivo at 3 mg/kg [2]: 99.9% | inhibition in vivo at 10 mg/kg [2]: 99.9% | EC50 [3]: 3.5 ng/mL (≈ 7.93 nM) | EC50 [1]: 3 ng/mL (≈ 6.8 nM)

CN1CCN(C(=O)c2ccc(-c3cnc(N)c(-c4ccc(C(F)(F)F)nc4)n3)cc2)CC1 [Compound 7, (4-(5-amino-6-(6-(trifluoromethyl)pyridin-3-yl)pyrazin-2-yl)phenyl)(4-methylpiperazin-1-yl)methanone]
inhibition in vivo at 3 mg/kg [2]: 81% | inhibition in vivo at 10 mg/kg [2]: 99.8% | EC50 [3]: 4.4 ng/mL (≈ 9.94 nM) | EC50 [1]: 4.4 ng/mL (≈ 9.94 nM)

Nc1ncc(-c2ccc(C(=O)N3CCNCC3)cc2)nc1-c1ccc(C(F)(F)F)cc1 [Compound 8, (4-(5-amino-6-(4-(trifluoromethyl)phenyl)pyrazin-2-yl)phenyl)(piperazin-1-yl)methanone]
inhibition in vivo at 3 mg/kg [2]: 99.9% | inhibition in vivo at 10 mg/kg [2]: 99.9% | EC50 [3]: 2.3 ng/mL (≈ 5.38 nM) | EC50 [1]: 2.1 ng/mL (≈ 4.91 nM)

Nc1ncc(-c2ccc(C(=O)N3CCNCC3)cc2)nc1-c1ccc(C(F)(F)F)nc1 [Compound 9, (4-(5-amino-6-(6-(trifluoromethyl)pyridin-3-yl)pyrazin-2-yl)phenyl)(piperazin-1-yl) methanone]
EC50 [3]: 4.6 ng/mL (≈ 10.7 nM) | EC50 [1]: 4 ng/mL (≈ 9.34 nM)

Nc1ncc(-c2ccc(C(=O)N3CCOCC3)cc2)nc1-c1ccc(C(F)(F)F)nc1 [Compound 10, (4-(5-amino-6-(6-(trifluoromethyl)pyridin-3-yl)pyrazin-2-yl)phenyl) (morpholino) methanone]
EC50 [1]: 4.1 ng/mL (≈ 9.55 nM)

Nc1ncc(-c2ccc(C(=O)N3CCOCC3)cc2)nc1-c1ccc(C(F)(F)F)cc1 [Compound 11, (4-(5-amino-6-(4-(trifluoromethyl)phenyl)pyrazin-2-yl)phenyl)(morpholino)methanone]
EC50 [1]: 3.1 ng/mL (≈ 7.24 nM)

CN1CCCN(C(=O)c2ccc(-c3cnc(N)c(-c4ccc(C(F)(F)F)nc4)n3)cc2)CC1 [Compound 12, (4-(5-amino-6-(6-(trifluoromethyl)pyridin-3-yl)pyrazin-2-yl)phenyl)(4-methyl-1,4-diazepan-1-yl)methanone]
inhibition in vivo at 3 mg/kg [2]: 99.9% | EC50 [3]: 6.9 ng/mL (≈ 15.1 nM) | EC50 [1]: 4.5 ng/mL (≈ 9.86 nM)

NC(=O)c1ccc(-c2cnc(N)c(-c3ccc(C(F)(F)F)c(F)c3)n2)cc1 [Compound 13, 4-(5-amino-6-(3-fluoro-4-(trifluoro-methyl)phenyl)pyrazin-2-yl) benzamide]
inhibition in vivo at 3 mg/kg [2]: 99.9% | inhibition in vivo at 10 mg/kg [2]: 99.9% | EC50 [3]: 18 ng/mL (≈ 47.8 nM) | EC50 [1]: 18 ng/mL (≈ 47.8 nM)

NC(=O)c1ccc(-c2cnc(N)c(-c3ccc(C(N)=O)cc3)n2)cc1 [Compound 15, 4,4′-(3-aminopyrazine-2,6-diyl) dibenzamide]
EC50 [3]: 8.5 ng/mL (≈ 25.5 nM) | EC50 [1]: 7.1 ng/mL (≈ 21.3 nM)

CC(C)(C)N1CCN(C(=O)c2ccc(-c3cnc(N)c(-c4ccc(C(F)(F)F)cc4)n3)cc2)CC1 [Compound 20, (4-(5-amino-6-(4-(trifluoromethyl)phenyl)pyrazin-2-yl)phenyl)(4-tert-butylpiperazin-1-yl)methanone]
EC50 [3]: 8.2 ng/mL (≈ 17 nM) | EC50 [1]: 5.5 ng/mL (≈ 11.4 nM)

Nc1ncc(-c2ccc(C(=O)N3CCC(O)C3)cc2)nc1-c1ccc(C(F)(F)F)cc1 (centres unmarked) [Compound 21, (4-(5-amino-6-(4-(trifluoromethyl)phenyl)pyrazin-2-yl)phenyl)(3-hydroxypyrrolidin-1-yl)methanone]
inhibition in vivo at 3 mg/kg [2]: 99.6% | EC50 [3]: 4.1 ng/mL (≈ 9.57 nM) | EC50 [1]: 2.9 ng/mL (≈ 6.77 nM)

Nc1ncc(-c2ccc(C(=O)N3CCC(O)CC3)cc2)nc1-c1ccc(C(F)(F)F)nc1 [Compound 22, (4-(5-amino-6-(6-(trifluoromethyl)pyridin-3-yl)pyrazin-2-yl)phenyl)(4-hydroxypiperidin-1-yl)methanone]
EC50 [3]: 4.5 ng/mL (≈ 10.1 nM) | EC50 [1]: 4 ng/mL (≈ 9.02 nM)

Nc1ncc(-c2ccc(C(=O)N3CCC(O)CC3)cc2)nc1-c1ccc(C(F)(F)F)cc1 [Compound 23, (4-(5-amino-6-(4-(trifluoromethyl)phenyl)pyrazin-2-yl)phenyl)(4-hydroxypiperidin-1-yl)methanone]
inhibition in vivo at 3 mg/kg [2]: 98.7% | EC50 [3]: 2.4 ng/mL (≈ 5.42 nM) | EC50 [1]: 2.2 ng/mL (≈ 4.97 nM)

CC(C)(C)N1CCN(C(=O)c2ccc(-c3cnc(N)c(-c4ccc(C(F)(F)F)nc4)n3)cc2)CC1 [Compound 24, (4-(5-amino-6-(6-(trifluoromethyl)pyridin-3-yl)pyrazin-2-yl)phenyl)(4-(tert-butyl)piperazin-1-yl)methanone]
inhibition in vivo at 3 mg/kg [2]: 87.6% | EC50 [3]: 4.3 ng/mL (≈ 8.87 nM) | EC50 [1]: 3.1 ng/mL (≈ 6.4 nM)

CN1CCCN(C(=O)c2ccc(-c3cnc(N)c(-c4ccc(C(F)(F)F)cc4)n3)cc2)CC1 [Compound 25, (4-(5-amino-6-(4-(trifluoromethyl)phenyl)pyrazin-2-yl)phenyl)(4-methyl-1,4-diazepan-1-yl)methanone]
inhibition in vivo at 3 mg/kg [2]: 90% | EC50 [3]: 3.1 ng/mL (≈ 6.81 nM) | EC50 [1]: 2.6 ng/mL (≈ 5.71 nM)

Nc1ncc(-c2ccc(C(=O)N3CCCNCC3)cc2)nc1-c1ccc(C(F)(F)F)nc1 [Compound 26, (4-(5-amino-6-(6-(trifluoromethyl)pyridin-3-yl)pyrazin-2-yl)phenyl) (1,4-diazepan-1-yl)methanone]
EC50 [3]: 5.9 ng/mL (≈ 13.3 nM) | EC50 [1]: 4.3 ng/mL (≈ 9.72 nM)

Nc1ncc(-c2ccc(C(=O)N3CCCNCC3)cc2)nc1-c1ccc(C(F)(F)F)cc1 [Compound 27, (4-(5-amino-6-(4-(trifluoromethyl)phenyl)pyrazin-2-yl)phenyl)(1,4-diazepan-1-yl)methanone]
inhibition in vivo at 3 mg/kg [2]: 88% | EC50 [3]: 3.2 ng/mL (≈ 7.25 nM) | EC50 [1]: 2.2 ng/mL (≈ 4.98 nM)

Nc1ncc(-c2ccc(C(=O)N3CCC(N)C3)cc2)nc1-c1ccc(C(F)(F)F)nc1 (centres unmarked) [Compound 28, (4-(5-amino-6-(6-(trifluoromethyl)pyridin-3-yl)pyrazin-2-yl)phenyl)(3-aminopyrrolidin-1-yl)methanone]
EC50 [3]: 17 ng/mL (≈ 39.7 nM) | EC50 [1]: 10 ng/mL (≈ 23.3 nM)

Nc1ncc(-c2ccc(C(=O)N3CCC(N)C3)cc2)nc1-c1ccc(C(F)(F)F)cc1 (centres unmarked) [Compound 29, (4-(5-amino-6-(4-(trifluoromethyl)phenyl)pyrazin-2-yl)phenyl)(3-aminopyrrolidin-1-yl)methanone]
EC50 [3]: 8.8 ng/mL (≈ 20.6 nM) | EC50 [1]: 4.8 ng/mL (≈ 11.2 nM)

Nc1ncc(-c2ccc(C(=O)N3CCC(O)C3)cc2)nc1-c1ccc(C(F)(F)F)nc1 (centres unmarked) [Compound 30, (4-(5-amino-6-(6-(trifluoromethyl)pyridin-3-yl)pyrazin-2-yl)phenyl)(3-hydroxypyrrolidin-1-yl)methanone]
EC50 [3]: 8.6 ng/mL (≈ 20 nM) | EC50 [1]: 5.2 ng/mL (≈ 12.1 nM)

Nc1ncc(-c2ccc(C(=O)N3CCC(N)CC3)cc2)nc1-c1ccc(C(F)(F)F)nc1 [Compound 31, (4-(5-amino-6-(6-(trifluoromethyl)pyridin-3-yl)pyrazin-2-yl)phenyl)(4-aminopiperidinyl)methanone]
EC50 [3]: 8.5 ng/mL (≈ 19.2 nM) | EC50 [1]: 7.6 ng/mL (≈ 17.2 nM)

Nc1ncc(-c2ccc(C(=O)N3CCC(N)CC3)cc2)nc1-c1ccc(C(F)(F)F)cc1 [Compound 32, (4-(5-amino-6-(4-(trifluoromethyl)phenyl)pyrazin-2-yl)phenyl)(4-aminopiperidinyl)methanone]
EC50 [3]: 4.3 ng/mL (≈ 9.74 nM) | EC50 [1]: 2.9 ng/mL (≈ 6.57 nM)

Nc1ncc(-c2ccc(S(=O)(=O)C3CC3)cc2)nc1-c1ccc(C(F)(F)F)nc1 [Compound 34, 5-(4-(cyclopropylsulfonyl)phenyl)-3-(6-(trifluoromethyl)pyridin-3-yl) pyrazin-2-amine]
EC50 [1]: 4 ng/mL (≈ 9.51 nM)

Nc1ncc(-c2ccc(C(=O)N3CC[C@@H](O)C3)cc2)nc1-c1ccc(C(F)(F)F)cc1 [Compound 35, (R)-(4-(5-amino-6-(4-(trifluoro-methyl)phenyl)pyrazin-2-yl)phenyl)(3-hydroxypyrrolidin-1-yl) methanone]
inhibition in vivo at 3 mg/kg [2]: 99.9% | inhibition in vivo at 10 mg/kg [2]: 99.9% | EC50 [3]: 3.2 ng/mL (≈ 7.47 nM)

Nc1ncc(-c2ccc(C(=O)N3CC[C@H](O)C3)cc2)nc1-c1ccc(C(F)(F)F)cc1 [Compound 36, (S)-(4-(5-amino-6-(4-(trifluoro-methyl)phenyl)pyrazin-2-yl)phenyl)(3-hydroxypyrrolidin-1-yl)methanone]
inhibition in vivo at 3 mg/kg [2]: 99.9% | inhibition in vivo at 10 mg/kg [2]: 99.9% | EC50 [3]: 2.6 ng/mL (≈ 6.07 nM)
